# Measured values: US20090124672A1 (priority 2007, published 2009)
# Molecular target: T1, hALDH2 (recombinant human mitochondria ALDH) (Homo sapiens, UniProt P05091)
# T1 sequence (P05091 18-517): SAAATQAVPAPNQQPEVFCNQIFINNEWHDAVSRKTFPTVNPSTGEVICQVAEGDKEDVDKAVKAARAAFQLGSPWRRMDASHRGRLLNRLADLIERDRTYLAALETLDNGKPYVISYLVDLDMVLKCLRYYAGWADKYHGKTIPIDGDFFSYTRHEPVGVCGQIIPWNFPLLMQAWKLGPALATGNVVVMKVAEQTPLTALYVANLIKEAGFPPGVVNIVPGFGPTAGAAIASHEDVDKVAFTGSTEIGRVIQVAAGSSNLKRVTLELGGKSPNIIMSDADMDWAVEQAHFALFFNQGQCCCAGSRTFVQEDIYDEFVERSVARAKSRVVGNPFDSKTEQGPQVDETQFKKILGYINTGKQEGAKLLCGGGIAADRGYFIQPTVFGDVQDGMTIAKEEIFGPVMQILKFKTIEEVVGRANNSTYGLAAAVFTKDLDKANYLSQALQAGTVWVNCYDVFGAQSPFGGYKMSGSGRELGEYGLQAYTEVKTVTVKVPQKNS
# Test: ALDH2 inhibition assay (NADH formation, formaldehyde substrate)
# Assay type: biochemical
# Conditions: not given
# Description: ALDH2 inhibition assays were performed in sodium phosphate buffer (50 mM, pH 7.4) containing 1.2 mM NAD^+ (Sigma N7004), 1 nM hALDH2 (recombinant human mitochondria ALDH), various concentrations of test compounds (from 0.03 nM to 1000 nM), and 0.15 mM freshly prepared formaldehyde solution (Ladd Research 20295). Reactions were initiated by the addition of formaldehyde and rates were recorded by monitoring NADH formation in a temperature controlled (25° C.) FluoroMax-2 Fluorimeter with excitation and emission wavelengths set at 340 and 460 nm, respectively. […] Normally, IC50 values were determined by fitting concentration-inhibition data to sigmoidal dose-response curves with two-floating parameters: IC50 and Hill coefficient. When tight binding situation was suspected, apparent Ki values were estimated by fitting dose-response data to Morrison's equation [Methods in Enzymology 63, 437-467, 1979].
row,IC50 [nM],Structure (SMILES)
1,62,"O=c1c(-c2ccc(O)cc2)coc2cc(OCc3noc(-c4cccc(F)c4)n3)ccc12 [PT-42, 7-{[5-(3-fluorophenyl)(1,2,4-oxadiazol-3-yl)]methoxy}-3-(4-hydroxyphenyl)chromen-4-one]"
2,470,"O=c1c(-c2ccc(O)cc2)coc2cc(OCc3nc(-c4ccccc4)no3)ccc12 [PT-43, 3-(4-hydroxyphenyl)-7-[(3-phenyl(1,2,4-oxadiazol-5-yl))methoxy]chromen-4-one]"
3,270,"O=c1c(-c2ccc(O)cc2)coc2cc(OCc3nc(-c4ccc(Cl)cc4)no3)ccc12 [PT-44, 3-(4-hydroxyphenyl)-7-({3-[4-chlorophenyl](1,2,4-oxadiazol-5-yl)}methoxy)chromen-4-one]"
4,140,"CS(=O)(=O)Nc1ccc(-c2coc3cc(OCc4noc(-c5ccc(F)cc5)n4)ccc3c2=O)cc1 [PT-48, 7-{[5-(4-fluorophenyl)(1,2,4-oxadiazol-3-yl)]methoxy}-3-{4-[(methylsulfonyl)amino]-phenyl}chromen-4-one]"
5,16,"O=C(O)c1cnc(COc2ccc3c(=O)c(-c4ccc(O)cc4)coc3c2)o1 [PT-49, 2-{[3-(4-hydroxyphenyl)-4-oxochromen-7-yloxy]methyl}-1,3-oxazole-5-carboxylic acid]"
6,5,"O=c1c(-c2ccc(O)cc2)coc2cc(OCNCc3cccc(C(F)(F)F)c3)ccc12 [PT-54, 3-(4-hydroxyphenyl)-7-[({[3-(trifluoromethyl)phenyl]methyl}amino)methoxy]chromen-4-one]"
7,72,"O=c1c(-c2ccc(O)cc2)coc2cc(OCc3cc(-c4cc(C(F)(F)F)cc(C(F)(F)F)c4)on3)ccc12 [PT-62, 7-({5-[3,5-bis(trifluoromethyl)phenyl]isoxazol-3-yl}methoxy)-3-(4-hydroxyphenyl)chromen-4-one]"
8,180,"N#Cc1ccc(-c2coc3cc(OCc4cc(-c5cccc(C(F)(F)F)c5)no4)ccc3c2=O)cc1 [PT-69, 4-[4-oxo-7-({3-[3-(trifluoromethyl)phenyl]isoxazol-5-yl}methoxy)chromen-3-yl]benzenecarbonitrile]"
9,122,"O=c1c(-c2ccc(O)cc2)coc2cc(OCc3cnc(-c4ccc(C(F)(F)F)cc4)s3)ccc12 [PT-77, 3-(4-hydroxyphenyl)-7-({2-[4-(trifluoromethyl)phenyl](1,3-thiazol-5-yl)}methoxy)chromen-4-one]"
10,139,"O=C(COc1ccc2c(=O)c(-c3ccc(O)cc3)coc2c1)c1cccc(F)c1 [PT-78, 7-[2-(3-fluorophenyl)-2-oxoethoxy]-3-(4-hydroxyphenyl)chromen-4-one]"
11,4,"O=c1c(-c2ccc(O)cc2)coc2cc(OCc3nnc(-c4ccccc4Cl)o3)ccc12 [PT-80, 7-{[5-(2-chlorophenyl)(1,3,4-oxadiazol-2-yl)]methoxy}-3-(4-hydroxyphenyl)chromen-4-one]"

# Same assay, conditions: at 1 μM
row,hALDH2 inhibition (IC50 hALDH2 column) [%],Structure (SMILES)
1,14,"O=c1c(-c2cn[nH]c2)coc2cc(OCc3noc(-c4cc(F)cc(C(F)(F)F)c4)n3)ccc12 [PT-75, 7-({5-[3-fluoro-5-(trifluoromethyl)phenyl](1,2,4-oxadiazol-3-yl)}methoxy)-3-(5-hydropyrazol-4-yl)chromen-4-one]"

# Same assay, conditions: at 1 μM; read-out: hALDH2 inhibition (IC50 hALDH2 column)
row,inhibition at 1 µM [%],Structure (SMILES)
1,10,"O=c1c(-c2ccc(OCc3ccc(C(F)(F)F)nc3)cc2)coc2cc(OCc3cncc(C(F)(F)F)c3)ccc12 [PT-46, 7-{[5-(trifluoromethyl)(3-pyridyl)]methoxy}-3-(4-{[6-(trifluoromethyl)(3-pyridyl)]methoxy}phenyl)chromen-4-one]"
2,47,"CO/N=C(\N)c1ccc(-c2coc3cc(OCc4cccc(C(=O)OC)c4)ccc3c2=O)cc1 [PT-50, methyl 3-({3-[4-((1Z)-1-amino-2-methoxy-2-azavinyl)phenyl]-4-oxochromen-7-yloxy}methyl)benzoate]"
3,14,"NC(=O)c1ccc(-c2coc3cc(OCc4noc(-c5cc(F)cc(C(F)(F)F)c5)n4)ccc3c2=O)cc1 [PT-72, 4-[7-({5-[3-fluoro-5-(trifluoromethyl)phenyl](1,2,4-oxadiazol-3-yl)}methoxy)-4-oxochromen-3-yl]benzamide]"
